Test results published in ChEMBL document CHEMBL1201862, “PubChem BioAssay data set” (2004).
Activity calls are given as the source filed them.

What was measured:
[1] = A cytotoxicity screen of small molecule inhibitors of the PhoP region in Salmonella typhi identified in the primary screen. [Related pubchem assays: 1850, 1864, 1985 ]; format: functional
Cytochrome P450 3A4 = Cytochrome P450 3A4 (Homo sapiens, UniProt P08684); details: Potency;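 note: confirmatory qHTS run detecting inhibitors and substrates of CYP3A4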
[2] = cytotoxicity in HPDE-C7 cells, cell-based, fluorescence, HTS (AID 430); format: functional; details: Homo sapiens
[3] = cytotoxicity in KRAS-transformed pancreatic duct cells, primary screen, cell-based, fluorescence, HTS (AID 431); format: functional; details: Homo sapiens;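 note: cell line used: HPDE-C7K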
[4] = Luminescence Cell-Based Dose Retest to Confirm Inhibitors of Cancer Stem Cells. [Related pubchem assays (depositor defined):AID2717, AID2721]; format: functional; details: Homo sapiens
Aspartyl aminopeptidase = target: T1, Aspartyl aminopeptidase (Plasmodium falciparum 3D7, UniProt Q8I2J3); experiment: Counterscreen for inhibitors of M1 and M17 aminopeptidases: QFRET-based biochemical high throughput dose response assay for inhibitors of the Plasmodium falciparum M18 Aspartyl Aminopeptidase (PFM18AAP). [Related PubChem assays: 1619 (Screening assay (M17LAP inhibitors).), 1445 (Screening assay (M1AAP inhibitors).)]
T1 sequence (Q8I2J3 whole entry): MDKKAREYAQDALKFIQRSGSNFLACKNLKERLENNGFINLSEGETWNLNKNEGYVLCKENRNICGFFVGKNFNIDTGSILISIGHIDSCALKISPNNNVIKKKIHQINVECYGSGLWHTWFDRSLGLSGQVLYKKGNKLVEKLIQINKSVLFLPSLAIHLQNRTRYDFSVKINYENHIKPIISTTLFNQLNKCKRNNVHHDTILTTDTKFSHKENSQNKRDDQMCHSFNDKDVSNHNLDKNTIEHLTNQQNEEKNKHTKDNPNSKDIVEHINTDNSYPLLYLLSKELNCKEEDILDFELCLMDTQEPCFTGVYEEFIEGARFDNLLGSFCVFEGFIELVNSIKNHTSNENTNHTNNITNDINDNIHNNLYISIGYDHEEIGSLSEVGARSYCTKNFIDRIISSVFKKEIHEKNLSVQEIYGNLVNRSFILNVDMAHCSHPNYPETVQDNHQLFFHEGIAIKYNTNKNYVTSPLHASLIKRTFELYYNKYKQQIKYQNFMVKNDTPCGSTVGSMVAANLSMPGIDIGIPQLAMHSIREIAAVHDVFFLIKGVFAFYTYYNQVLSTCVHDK

Procathepsin L = Procathepsin L (Homo sapiens, UniProt P07711); experiment: cathepsin L inhibitors, dose response, counter-screen for M1/M17 aminopeptidase inhibitor project, biochemical, QFRET, 1536-well (AID 2214)
Leucine aminopeptidase = target: T2, Leucine aminopeptidase (Plasmodium falciparum 3D7, UniProt Q8IL11); experiment: P. falciparum M17LAP inhibitors, primary screen, biochemical, fluorogenic H-Leu-NHMec substrate, 1536-well (AID 1619); format: functional
T2 sequence (Q8IL11 whole entry): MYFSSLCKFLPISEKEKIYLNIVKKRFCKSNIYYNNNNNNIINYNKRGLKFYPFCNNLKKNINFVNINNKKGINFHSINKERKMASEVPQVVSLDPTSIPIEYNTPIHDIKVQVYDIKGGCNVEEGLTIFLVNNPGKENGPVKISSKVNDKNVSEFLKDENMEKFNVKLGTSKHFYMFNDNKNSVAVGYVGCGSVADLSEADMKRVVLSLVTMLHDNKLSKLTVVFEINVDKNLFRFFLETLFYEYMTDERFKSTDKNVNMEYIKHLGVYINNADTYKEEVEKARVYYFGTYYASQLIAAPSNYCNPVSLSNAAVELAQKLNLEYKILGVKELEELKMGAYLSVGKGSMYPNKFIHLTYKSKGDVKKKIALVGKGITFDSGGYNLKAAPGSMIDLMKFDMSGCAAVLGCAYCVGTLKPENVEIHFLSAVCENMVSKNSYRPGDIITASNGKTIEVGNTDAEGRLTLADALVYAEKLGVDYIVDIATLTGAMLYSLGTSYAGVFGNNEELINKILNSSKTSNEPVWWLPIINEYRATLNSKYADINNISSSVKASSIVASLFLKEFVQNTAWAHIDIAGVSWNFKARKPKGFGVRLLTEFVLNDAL

[5] = target: T3, Alkaline phosphatase, tissue-nonspecific isozyme (Homo sapiens, UniProt P05186); experiment: human TNAP enzyme inhibitors, SAR follow-up, biochemical, luminescent, dose response (AID 1056)
T3 sequence (P05186 whole entry): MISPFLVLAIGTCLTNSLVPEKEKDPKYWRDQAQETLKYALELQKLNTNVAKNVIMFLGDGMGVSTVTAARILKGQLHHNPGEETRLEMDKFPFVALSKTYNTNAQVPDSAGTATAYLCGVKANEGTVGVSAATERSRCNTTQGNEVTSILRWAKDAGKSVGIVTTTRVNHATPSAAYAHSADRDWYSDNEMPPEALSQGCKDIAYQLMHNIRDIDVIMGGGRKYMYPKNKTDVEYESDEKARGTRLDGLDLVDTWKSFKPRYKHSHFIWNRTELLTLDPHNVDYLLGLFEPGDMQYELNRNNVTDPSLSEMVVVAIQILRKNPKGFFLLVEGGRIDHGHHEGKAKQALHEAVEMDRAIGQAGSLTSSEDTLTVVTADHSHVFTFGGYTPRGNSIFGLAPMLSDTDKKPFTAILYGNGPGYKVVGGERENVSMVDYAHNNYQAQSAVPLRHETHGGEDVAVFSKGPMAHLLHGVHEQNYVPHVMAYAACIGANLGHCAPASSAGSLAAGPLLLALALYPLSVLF

[6] = target: Glyceraldehyde-3-phosphate dehydrogenase (Homo sapiens, UniProt P04406)
[7] = target: Alkaline phosphatase, placental type (Homo sapiens, UniProt P05187); experiment: PLAP enzyme inhibitors, confirmation, biochemical, luminescence (AID 1512); format: functional
Chain of Alkaline phosphatase, placental type (P05187 whole entry): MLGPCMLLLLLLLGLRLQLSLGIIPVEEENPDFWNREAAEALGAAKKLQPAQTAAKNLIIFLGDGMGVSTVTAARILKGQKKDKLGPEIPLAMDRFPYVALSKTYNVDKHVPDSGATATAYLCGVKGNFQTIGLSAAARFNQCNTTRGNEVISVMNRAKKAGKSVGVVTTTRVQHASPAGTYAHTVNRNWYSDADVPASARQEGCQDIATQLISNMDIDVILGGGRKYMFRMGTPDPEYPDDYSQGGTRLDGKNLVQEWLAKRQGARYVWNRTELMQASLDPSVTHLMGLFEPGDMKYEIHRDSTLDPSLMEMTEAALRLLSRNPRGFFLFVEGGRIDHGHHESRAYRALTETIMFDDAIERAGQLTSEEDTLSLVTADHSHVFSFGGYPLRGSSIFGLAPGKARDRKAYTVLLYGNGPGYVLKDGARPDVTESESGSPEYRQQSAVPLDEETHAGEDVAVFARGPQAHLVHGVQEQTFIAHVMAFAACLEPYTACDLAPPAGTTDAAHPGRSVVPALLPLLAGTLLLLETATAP

Chain of Glyceraldehyde-3-phosphate dehydrogenase (P04406 whole entry): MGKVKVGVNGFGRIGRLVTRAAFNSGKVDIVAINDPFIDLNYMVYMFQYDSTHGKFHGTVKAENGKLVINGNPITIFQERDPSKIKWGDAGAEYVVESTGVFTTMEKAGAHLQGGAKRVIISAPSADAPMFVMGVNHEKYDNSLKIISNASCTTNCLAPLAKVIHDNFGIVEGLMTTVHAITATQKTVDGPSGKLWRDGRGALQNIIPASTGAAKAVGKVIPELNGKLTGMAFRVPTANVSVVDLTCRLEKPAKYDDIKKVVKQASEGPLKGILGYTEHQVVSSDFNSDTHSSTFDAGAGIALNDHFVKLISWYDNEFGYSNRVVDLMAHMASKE
Chain of Procathepsin L (P07711 whole entry): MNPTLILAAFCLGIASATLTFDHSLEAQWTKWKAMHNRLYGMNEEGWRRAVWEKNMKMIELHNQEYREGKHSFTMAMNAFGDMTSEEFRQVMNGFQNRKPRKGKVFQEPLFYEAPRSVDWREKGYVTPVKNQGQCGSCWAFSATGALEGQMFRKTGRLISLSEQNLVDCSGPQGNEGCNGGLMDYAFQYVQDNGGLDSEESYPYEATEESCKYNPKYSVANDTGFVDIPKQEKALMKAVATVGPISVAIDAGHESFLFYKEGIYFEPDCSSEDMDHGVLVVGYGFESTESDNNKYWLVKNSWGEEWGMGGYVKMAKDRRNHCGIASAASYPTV
Chain of Cytochrome P450 3A4 (P08684 whole entry): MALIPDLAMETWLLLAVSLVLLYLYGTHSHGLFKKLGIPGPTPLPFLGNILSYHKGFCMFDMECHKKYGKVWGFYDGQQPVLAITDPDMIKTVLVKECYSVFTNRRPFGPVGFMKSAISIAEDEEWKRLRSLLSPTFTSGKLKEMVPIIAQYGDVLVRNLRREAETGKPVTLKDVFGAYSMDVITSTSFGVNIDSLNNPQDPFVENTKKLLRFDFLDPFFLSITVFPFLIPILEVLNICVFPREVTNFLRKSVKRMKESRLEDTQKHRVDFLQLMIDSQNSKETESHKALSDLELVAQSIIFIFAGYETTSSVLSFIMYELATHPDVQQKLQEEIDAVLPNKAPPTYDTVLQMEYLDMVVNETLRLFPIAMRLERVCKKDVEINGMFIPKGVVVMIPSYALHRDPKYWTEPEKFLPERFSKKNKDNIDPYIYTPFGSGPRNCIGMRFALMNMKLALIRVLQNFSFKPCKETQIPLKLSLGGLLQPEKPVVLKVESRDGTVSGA

In the case of `CCOC(=O)Cc1csc(NC(=O)c2ccc(S(=O)(=O)N3CCCC3)cc2)n1`, the EC50 [1] is reported as > 50 µM (active).
In the case of `CC(=O)OCC1OC(C#Cc2ccc(Br)cc2)C=CC1OC(C)=O` (stereo unspecified), the AC50 (Cytochrome P450 3A4) is reported as 3.16 µM (inconclusive).
With `COc1cc(CN2CCN(c3cccc(Cl)c3)CC2)cc(OC)c1OC` the EC50 [2] was 6.14 µM (active), the EC50 [3] was 5.95 µM (active) and the AC50 [4] was 1.45 µM (active).
For `COC(=O)c1c(NC(=O)C2CCCCC2C(=O)O)sc2c1CCCCC2` (stereo unspecified), the IC50 (Aspartyl aminopeptidase) was > 73.5 µM (not active), the IC50 (Procathepsin L) was > 59.6 µM (not active) and the IC50 (Leucine aminopeptidase) was 1.49 µM (active).
For `CCCC(=O)N1CCN(c2ccc(NC(=S)NC(=O)c3cccc(C)c3)cc2)CC1`, the EC50 [1] was > 50 µM (active).
For `COc1ccccc1-c1nnc(SCc2ccc(C(=O)O)cc2)[nH]1`, the IC50 [5] was 16.3 µM (active), the IC50 [6] was > 100 µM (not active) and the IC50 [7] was > 100 µM (inactive).
In the case of `CSc1n[nH]c(NC(C)=O)n1`, the IC50 [5] is reported as > 10 µM (inactive) and the IC50 [6] is reported as > 10 µM (inconclusive).
With `O=S(=O)(Nc1ccncn1)c1cc(Cl)ccc1F` the IC50 [5] was > 100 µM (inactive) and the IC50 [6] was > 100 µM (not active).
